Data from ChEMBL document CHEMBL6096689, “Structure-Guided Development of ClpP Agonists with Potent Therapeutic Activities against Staphylococcus aureus Infection” (J Med Chem, 2025).
Converted amounts (≈) assume the structure as drawn. The source made the active and inactive calls. The rule behind the calls is not given here.

Experiments:
[1] = target: T1, ATP-dependent Clp protease proteolytic subunit (Staphylococcus aureus (strain NCTC 8325), UniProt Q2G036); assay: Agonist activity at Staphylococcus aureus ClpP extracted from Escherichia coli BL21 (DE3) cells using alpha-casein as substrate assessed as substrate hydrolysis preincubated for 15 mins followed by substrate addition and measured after 2 hrs by SDS-PAGE analysis
T1 sequence (Q2G036 whole entry): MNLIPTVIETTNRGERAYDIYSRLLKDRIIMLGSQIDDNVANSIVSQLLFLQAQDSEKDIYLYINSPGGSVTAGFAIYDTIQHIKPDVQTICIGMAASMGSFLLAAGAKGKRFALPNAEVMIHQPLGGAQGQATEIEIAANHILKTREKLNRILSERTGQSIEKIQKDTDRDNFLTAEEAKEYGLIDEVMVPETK

[2] = Therapeutic index, ratio of IC50 for HEK293T/17 cells to MIC for Staphylococcus aureus Newman; assay type: toxicity, cell-based; details: human, read-out: TI
[3] = target: T1, ATP-dependent Clp protease proteolytic subunit; assay: (§1) Agonist activity at Staphylococcus aureus ClpP extracted from Escherichia coli BL21 (DE3) cells using FITC-casein as substrate assessed as substrate hydrolysis preincubated for 60 mins followed by substrate addition and measured after 1 hrs by fluorescence based analysis
[4] = target: T2, ATP-dependent Clp protease proteolytic subunit (Staphylococcus aureus (strain NCTC 8325)) (UniProt Q2G036); assay: as §1, with “Potency index, ratio of ONC212 EC50 to test compound EC50 for agonist” for “Agonist”; details: time 120.0 min
T2 sequence (whole entry): T1 sequence (Q2G036 whole entry)

[5] = target: T2, ATP-dependent Clp protease proteolytic subunit (Staphylococcus aureus (strain NCTC 8325)); assay: Agonist activity at Staphylococcus aureus ClpP extracted from Escherichia coli BL21 (DE3) cells assessed as induction of ClpP-mediated staphylococcus aureus FtsZ degradation preincubated for 15 mins followed by FtsZ addition by SDS-PAGE analysis; details: filed as agonist, time <= 105.0 min
[6] = target: T3, ATP-dependent Clp protease proteolytic subunit, mitochondrial (Homo sapiens, UniProt Q16740); assay: Agonist activity at human ClpP extracted from Escherichia coli Rosetta (DE3) cells using alpha-casein as substrate assessed as substrate hydrolysis preincubated for 15 mins followed by substrate addition and measured after 2 hrs by SDS-PAGE analysis
T3 sequence (Q16740 whole entry): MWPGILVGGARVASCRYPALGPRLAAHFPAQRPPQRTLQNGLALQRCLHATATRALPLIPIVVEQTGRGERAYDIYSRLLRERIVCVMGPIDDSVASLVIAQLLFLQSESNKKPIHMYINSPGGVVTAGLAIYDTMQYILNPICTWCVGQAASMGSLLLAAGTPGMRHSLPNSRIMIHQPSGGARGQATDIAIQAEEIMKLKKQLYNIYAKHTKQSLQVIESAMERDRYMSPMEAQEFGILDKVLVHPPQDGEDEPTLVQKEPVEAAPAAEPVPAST

[7] = target: ATP-dependent Clp protease proteolytic subunit (Escherichia coli (strain K12), UniProt P0A6G7); assay: Agonist activity at Escherichia coli ClpP using alpha-casein as substrate assessed as substrate hydrolysis preincubated for 15 mins followed by substrate addition and measured after 2 hrs by SDS-PAGE analysis
Sequence of ATP-dependent Clp protease proteolytic subunit (Escherichia coli (strain K12), UniProt P0A6G7) (P0A6G7 whole entry): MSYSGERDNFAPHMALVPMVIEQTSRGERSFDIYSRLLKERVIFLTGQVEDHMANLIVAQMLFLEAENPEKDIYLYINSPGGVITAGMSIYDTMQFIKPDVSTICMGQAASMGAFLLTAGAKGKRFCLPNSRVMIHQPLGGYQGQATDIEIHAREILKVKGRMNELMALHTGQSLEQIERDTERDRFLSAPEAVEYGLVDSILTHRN

[8] = Agonist activity at Lactobacillus acidophilus ClpP using alpha-casein as substrate assessed as substrate hydrolysis preincubated for 15 mins followed by substrate addition and measured after 2 hrs by SDS-PAGE analysis
[9] = target: T2, ATP-dependent Clp protease proteolytic subunit (Staphylococcus aureus (strain NCTC 8325)); assay: Induction of thermal stabilization of Staphylococcus aureus ClpP extracted from Escherichia coli BL21 (DE3) cells assessed as change in melting temperature at 10 uM incubated for 10 mins by DSF analysis
[10] = target: T3, ATP-dependent Clp protease proteolytic subunit, mitochondrial; assay: Induction of thermal stabilization of human ClpP extracted from Escherichia coli Rosetta (DE3) cells assessed as change in melting temperature at 10 uM incubated for 10 mins by DSF analysis
[11] = Therapeutic index, ratio of IC50 for human ARH-77 cells to MIC for Staphylococcus aureus Newman; assay type: toxicity, cell-based; details: read-out: TI
[12] = target: T3, ATP-dependent Clp protease proteolytic subunit, mitochondrial; assay: Induction of thermal stabilization of CLpP in HEK293T/17 at 10 times of MIC preincubated for 2 hrs followed by compound washout and incubated under 57.3 to 74.5 degreeC for 3 mins by CETSA; assay type: cell-based
[13] = test system: Staphylococcus aureus; assay: Antibacterial activity against Staphylococcus aureus 8325-4 harboring ClpP mutant assessed as inhibition of visible growth of bacteria incubated for 18 hrs by absorbance based assay; assay type: functional
[14] = test system: Staphylococcus aureus; assay: Antibacterial activity against CLpP complemented Staphylococcus aureus 8325-4 assessed as inhibition of visible growth of bacteria incubated for 18 hrs by absorbance based assay; assay type: functional, organism-based
[15] = test system: Staphylococcus aureus; assay: microbe, parasite or virus in culture; assay type: functional; details: USA300, time 18 hrs
Description: Antibacterial activity against methicillin-resistant Staphylococcus aureus USA300 assessed as inhibition of visible growth of bacteria incubated for 18 hrs by absorbance based analysis

[16] = test system: Staphylococcus aureus; assay: microbe, parasite or virus in culture; assay type: functional; details: NRS-70, time 18 hrs
Description: Antibacterial activity against methicillin-resistant Staphylococcus aureus NRS-70 assessed as inhibition of visible growth of bacteria incubated for 18 hrs by absorbance based analysis

[17] = test system: Staphylococcus aureus; assay: microbe, parasite or virus in culture; assay type: functional; details: time 18 hrs
Description: Antibacterial activity against multidrug-resistant Staphylococcus aureus clinical isolate XJ009 assessed as inhibition of visible growth of bacteria incubated for 18 hrs by absorbance based analysis

[18] = test system: Staphylococcus aureus; assay: microbe, parasite or virus in culture; assay type: functional; details: time 18 hrs; remark: listed apart in the source
Description: Antibacterial activity against multidrug-resistant Staphylococcus aureus clinical isolate XJ025 assessed as inhibition of visible growth of bacteria incubated for 18 hrs by absorbance based analysis

[19] = test system: Staphylococcus aureus; assay: microbe, parasite or virus in culture; assay type: functional; details: time 18 hrs; remark: listed apart in the source
Description: Antibacterial activity against multidrug-resistant Staphylococcus aureus clinical isolate XJ049 assessed as inhibition of visible growth of bacteria incubated for 18 hrs by absorbance based analysis

[20] = test system: Staphylococcus aureus; assay: microbe, parasite or virus in culture; assay type: functional; details: time 18 hrs; remark: listed apart in the source
Description: Antibacterial activity against multidrug-resistant Staphylococcus aureus clinical isolate XJ052 assessed as inhibition of visible growth of bacteria incubated for 18 hrs by absorbance based analysis

[21] = test system: Staphylococcus aureus; assay: Antibacterial activity against Staphylococcus aureus USA300 infected in Zebrafish infection model assessed as increase in zebrafish survival at 5 mg/kg pre-infected for 1 hrs followed by compound addition and measured after 5 days; assay type: functional, organism-based; details: time 5.0 day
[22] = test system: Staphylococcus aureus; assay: Antibacterial activity against Staphylococcus aureus USA300 infected in female ICR mouse peritonitis model assessed as increase in mouse survival at 25 to 100 mg/kg, ip pre-infected for 1 hrs followed by compound addition and measured after 5 days relative to control; assay type: functional; details: dose 25-100 mg/kg, time 5 day
[23] = test system: Staphylococcus aureus; assay: Antibacterial activity against Staphylococcus aureus USA300 infected in female ICR mouse peritonitis model assessed as reduction in bacterial load in heart at 25 to 100 mg/kg, ip pre-infected for 1 hrs followed by compound addition and measured after 5 days relative to control; assay type: functional; details: dose 25-100 mg/kg, time 5 day
[24] = test system: Staphylococcus aureus; assay: Antibacterial activity against Staphylococcus aureus USA300 infected in female ICR mouse peritonitis model assessed as reduction in bacterial load in liver at 25 to 100 mg/kg, ip pre-infected for 1 hrs followed by compound addition and measured after 5 days relative to control; assay type: functional; details: dose 25-100 mg/kg, time 5 day
[25] = test system: Staphylococcus aureus; assay: Antibacterial activity against Staphylococcus aureus USA300 infected in female ICR mouse peritonitis model assessed as reduction in bacterial load in spleen at 25 to 100 mg/kg, ip pre-infected for 1 hrs followed by compound addition and measured after 5 days relative to control; assay type: functional; details: dose 25-100 mg/kg, time 5 day
[26] = test system: Staphylococcus aureus; assay: Antibacterial activity against Staphylococcus aureus USA300 infected in female ICR mouse peritonitis model assessed as reduction in bacterial load in lung at 25 to 100 mg/kg, ip pre-infected for 1 hrs followed by compound addition and measured after 5 days relative to control; assay type: functional; details: dose 25-100 mg/kg, time 5 day
[27] = test system: Staphylococcus aureus; assay: Antibacterial activity against Staphylococcus aureus USA300 infected in female ICR mouse peritonitis model assessed as reduction in bacterial load in kidney at 25 to 100 mg/kg, ip pre-infected for 1 hrs followed by compound addition and measured after 5 days relative to control; assay type: functional; details: dose 25-100 mg/kg, time 5 day
[28] = test system: Staphylococcus aureus; assay: Antibacterial activity against Staphylococcus aureus USA300 infected in female ICR mouse peritonitis model assessed as reduction in bacterial load in peritoneal fluid at 25 to 100 mg/kg, ip pre-infected for 1 hrs followed by compound addition and measured after 5 days relative to control; assay type: functional; details: dose 25-100 mg/kg, time 5 day
[29] = test system: Staphylococcus aureus; assay: Antibacterial activity against oxacillin-resistant Staphylococcus aureus clinical isolate XJ049 infected in female ICR mouse peritonitis model assessed as mouse survival at 50 mg/kg, ip pre-infected for 1 hrs followed by compound addition and measured after 5 days relative to control; assay type: functional; details: 120 h, time 5 day
[30] = Toxicity in female ICR mouse model of peritonitis infected with Staphylococcus aureus USA300 assessed as effect on body weight at 50 mg/kg, ip pre-infected for 1 hrs followed by compound addition and measured after 5 days; assay type: organism-based; details: in vivo, 120 h, time 5 day

Which EC50 [1] does the source give for `CC[C@H](C)[C@H]1C(=O)N(Cc2ccc(OC)c3ccccc23)C[C@@H]2N(C(=O)NCCCC(F)(F)F)CCC(=O)N12` here?
Its EC50 is 1100 nM.

What about the selectivity ratio [2] of the same compound?
Its selectivity ratio is 190.

What about the EC50 [3] of the same compound?
Its EC50 is 330 nM.

And the Ratio EC50 [4]?
The Ratio EC50 was 2.2.

What about the Activity [5] of the same compound?
Its Activity is “Time-dependent-effect”.

And the EC50 [6]?
The EC50 was 3600 nM.

What about the EC50 [7] of the same compound?
Its EC50 is > 100000 nM.

And the EC50 [8]?
The EC50 was > 100000 nM.

And the ΔTm [9]?
The ΔTm was 22.8 °C.

And the ΔTm [10]?
The ΔTm was 18 °C.

What about the selectivity ratio [11] of the same compound?
The selectivity ratio was 206.

What about the Activity [12] of the same compound?
The Activity was “Active; Minimal Effect On Thermal Stability Observed”.

What about the MIC [13] of the same compound?
Its MIC is > 128 µg/mL.

What about the Activity [14] of the same compound?
The Activity was “Active”.

What about the MIC [15] of the same compound?
Its MIC is 0.06 µg/mL (≈ 0.109 µM).

What about the MIC [16] of the same compound?
The MIC was 0.06 µg/mL (≈ 0.109 µM).

What about the MIC [17] of the same compound?
The MIC was 0.06 µg/mL (≈ 0.109 µM).

And the MIC [18]?
The MIC was 0.13 µg/mL (≈ 0.237 µM).

What about the MIC [19] of the same compound?
The MIC was 0.13 µg/mL (≈ 0.237 µM).

What about the MIC [20] of the same compound?
The MIC was 0.13 µg/mL (≈ 0.237 µM).

What about the Activity [21] of the same compound?
The Activity was “Active; Comparable To 25 Mg/Kg Of (R)-Zg197”.

What about the Activity [22] of the same compound?
Its Activity is 89%.

What about the Activity [23] of the same compound?
The Activity was 2 log10CFU/g.

And the Activity [24]?
The Activity was 2 log10CFU/g.

What about the Activity [25] of the same compound?
The Activity was 2 log10CFU/g.

And the Activity [26]?
Its Activity is 2 log10CFU/g.

And the Activity [27]?
The Activity was 2 log10CFU/g.

And the Activity [28]?
Its Activity is 2 log10CFU/g.

What about the survival at 50 mg/kg [29] of the same compound?
The survival at 50 mg/kg was 100%.

What about the Activity [30] of the same compound?
The Activity was “Non-toxic”.
